Results published in patent US6680304B2, “Disaccharides with anti-arthrosic properties” (Bioiberica, S.A., priority 2000, dated 2004).
Counter-ions that a name gives are not always drawn.

Tests used:
[1] = system: aggrecan; experiment: Aggrecan accumulation in cell-associated matrix of IL-1-treated chondrocytes in alginate gel, flow cytometry; type: cell-based, human; conditions: for AGGR (aggrecan): 7 days, average of three measures; for change in accumulation of aggrecan in the CAM: IL-1+ chondrocytes, treated compared to untreated
Description: (§1) Each of the compounds (Ib, IC) has been tested on human articular cartilage chondrocytes obtained from 2 different donors. The chondrocytes were cultured over 7 days in alginate gel and during this period they were exposed to the different drugs. The cells were then isolated from the gel and tested. The test protocol specified that the chondrocytes were exposed to IL-1 since it has been shown that particularly IL-1-treated chondrocytes, as opposed to non-treated chondrocytes, respond to polysulphated polysaccharides. As a positive control, chondroitin sulphate (CS) and chondroitin polysulphate (CPS) have been used.
(§2) The accumulation of aggrecan and of type II collagen in the cell-associated matrix (CAM) of the chondrocytes in culture was the primary variable to evaluate the DMOAD (Disease Modifying Osteoarthritic Drug) effects of the 2 compounds. The intracellular levels of IL-1α and β, MMP-13 were also studied.
(§3) All assays were made by flow cytometry. Specific Fluoresceine Isothiocyanate- (FITC-) or Phycoerythin (PE-) conjugated monoclonal antibodies (Mab) against the different proteins have been used. The results were expressed as Mean Fluorescence Intensity (MFI) of the chondrocyte population after staining with the respective Mab.

[2] = system: type II collagen; experiment: Type II collagen accumulation in cell-associated matrix of IL-1-treated chondrocytes in alginate gel, flow cytometry; type: cell-based, human; conditions: for COLL (type II collagen): 7 days, average of three measures; for change in accumulation of type II collagen in the CAM: IL-1+ chondrocytes, treated compared to untreated
Description: as §1, §2, §3

[3] = system: IL-1α; experiment: Intracellular IL-1α level in IL-1-treated chondrocytes, flow cytometry; type: cell-based, human; conditions: for IL-1α / IL-Iα: 7 days, average of three measures; for change in levels of IL-1α: IL-1+ chondrocytes, treated compared to untreated
Description: as §1, §2, §3

[4] = system: IL-1β; experiment: Intracellular IL-1β level in IL-1-treated chondrocytes, flow cytometry; type: cell-based, human; conditions: for IL-1β: 7 days, average of three measures; for change in levels of IL-1β: IL-1+ chondrocytes, treated compared to untreated
Description: as §1, §2, §3

[5] = system: MMP-13; experiment: Intracellular MMP-13 level in IL-1-treated chondrocytes, flow cytometry; type: cell-based, human; conditions: for MMP-13: 7 days, average of three measures; for change in levels of MMP-13: IL-1+ chondrocytes, treated compared to untreated
Description: as §1, §2, §3

[6] = system: human articular chondrocytes; experiment: Overall DMOAD (cartilage structure modifying) effect on cultured chondrocytes; type: cell-based; conditions: effects comparable to those of CS and CPS
Description: as §1, §2, §3

[7] = Table 1, donor F53 + IL-1β, 25 μ/ml
[8] = Table 2, donor F53 + IL-1β, 25 μg/ml
[9] = Table 1, donor F53 + IL-1β, 10 μ/ml
[10] = Table 2, donor F53 + IL-1β, 10 μg/ml

Compound | overall conclusion on effect on cartilage [6] | change in accumulation of aggrecan in the CAM [1] | AGGR (aggrecan) [1, 9] [MFI] | AGGR (aggrecan) [1, 10] [MFI] | AGGR (aggrecan) ([1]; donor F16 + IL-1β, 10 μ/ml) [MFI] | AGGR (aggrecan) ([1]; donor F73 + IL-1β, 10 μg/ml) [MFI] | change in accumulation of type II collagen in the CAM [2] | COLL (type II collagen) [2, 9] [MFI] | COLL (type II collagen) [2, 10] [MFI] | COLL (type II collagen) ([2]; donor F16 + IL-1β, 10 μ/ml) [MFI] | COLL (type II collagen) ([2]; donor F73 + IL-1β, 10 μg/ml) [MFI] | change in levels of IL-1α [3] | IL-1α [3, 9] [MFI] | IL-Iα [3, 10] [MFI] | IL-1α ([3]; donor F16 + IL-1β, 10 μ/ml) [MFI] | IL-Iα ([3]; donor F73 + IL-1β, 10 μg/ml) [MFI] | change in levels of IL-1β [4] | IL-1β [4, 9] [MFI] | IL-1β [4, 10] [MFI] | IL-1β ([4]; donor F16 + IL-1β, 10 μ/ml) [MFI] | also measured
CO[C@H]1O[C@H](COS(=O)(=O)[O-])[C@@H](O)[C@H](O[C@@H]2O[C@H](C(=O)[O-])[C@@H](O)[C@H](O)[C@H]2O)[C@H]1NC(C)=O.[Na+].[Na+] [Ib, Methyl 2-acetamido-2-deoxy-3-O-(β-D-glucopyranosyluronic acid)-6-O-sulfo-α-D-glucopyranoside, disodium salt] | cartilage structure modifying effects | – | – | – | – | – | – | – | – | – | – | – | – | – | – | – | – | – | – | – | AGGR (aggrecan) [1, 7]: 14.41 MFI; AGGR (aggrecan) ([1]; donor F16 + IL-1β, 25 μ/ml): 48.77 MFI; COLL (type II collagen) [2, 7]: 1.00 MFI; COLL (type II collagen) ([2]; donor F16 + IL-1β, 25 μ/ml): 2.92 MFI; IL-1α [3, 7]: 44.24 MFI; IL-1α ([3]; donor F16 + IL-1β, 25 μ/ml): 19.83 MFI; IL-1β [4, 7]: 2.92 MFI; IL-1β ([4]; donor F16 + IL-1β, 25 μ/ml): 1.03 MFI; MMP-13 [5, 7]: 17.67 MFI; MMP-13 ([5]; donor F16 + IL-1β, 25 μ/ml): 22.49 MFI
CO[C@H]1O[C@H](COS(=O)(=O)O)[C@@H](OS(=O)(=O)O)[C@H](O[C@@H]2O[C@H](C(=O)O)[C@@H](O)[C@H](O)[C@H]2O)[C@H]1NC(C)=O [Ic, Methyl 2-acetamido-2-deoxy-3-O-(β-D-glucopyranosyluronic acid)-4,6-di-O-sulfo-α-D-glucopyranoside, trisodium salt] | cartilage structure modifying effects | – | – | – | – | – | – | – | – | – | – | – | – | – | – | – | – | – | – | – | AGGR (aggrecan) [1, 8]: 18.42 MFI; AGGR (aggrecan) ([1]; donor F73 + IL-1β, 25 μg/ml): 59.82 MFI; COLL (type II collagen) [2, 8]: 0.97 MFI; COLL (type II collagen) ([2]; donor F73 + IL-1β, 25 μg/ml): 2.45 MFI; IL-Iα [3, 8]: 44.69 MFI; IL-Iα ([3]; donor F73 + IL-1β, 25 μg/ml): 14.92 MFI; IL-1β [4, 8]: 3.63 MFI; IL-1β ([4]; donor F73 + IL-1β, 25 μg/ml): 0.45 MFI; MMP-13 [5, 8]: 19.62 MFI; MMP-13 ([5]; donor F73 + IL-1β, 25 μg/ml): 18.92 MFI
chondroitin polysulphate [CPS] | – | statistically significant increase | 19.47 | 19.47 | 46.41 | 24.71 | statistically significant increase | 2.12 | 2.12 | 2.31 | 1.96 | statistically significant decrease | 43.84 | 43.84 | 16.94 | 16.43 | statistically significant decrease | 2.68 | 2.68 | 1.18 | IL-1β ([4]; donor F73 + IL-1β, 10 μg/ml): 0.45 MFI; change in levels of MMP-13 [5]: statistically significant decrease; MMP-13 [5, 9]: 11.82 MFI; MMP-13 [5, 10]: 11.82 MFI; MMP-13 ([5]; donor F16 + IL-1β, 10 μ/ml): 23.20 MFI; MMP-13 ([5]; donor F73 + IL-1β, 10 μg/ml): 22.11 MFI
chondroitin sulphate [CS] | – | statistically significant increase | 15.09 | 15.09 | 47.39 | 28.72 | statistically significant increase | 1.23 | 1.23 | 2.97 | 1.45 | statistically significant decrease | 45.41 | 45.41 | 17.09 | 17.49 | statistically significant decrease | 3.06 | 3.06 | 1.17 | IL-1β ([4]; donor F73 + IL-1β, 10 μg/ml): 0.47 MFI; change in levels of MMP-13 [5]: statistically significant decrease; MMP-13 [5, 9]: 14.70 MFI; MMP-13 [5, 10]: 14.70 MFI; MMP-13 ([5]; donor F16 + IL-1β, 10 μ/ml): 23.34 MFI; MMP-13 ([5]; donor F73 + IL-1β, 10 μg/ml): 21.12 MFI
